Measured values taken from US10555894B2, “Plant extract comprising sucrose esters as an active agent for use in cosmetic, dermatological or nutricosmetic composition” (COSMO INTERNATIONAL INGREDIENTS, priority 2014, dated 2020).

Experiments:
[1] = system: normal human epidermal melanocytes (NHEM); assay: Synthesis of melanin in melanocytes stimulated by L-tyrosine; assay type: cell-based; conditions: L-tyrosine 1 mM, 10 days, tested at 5 μg/ml
Experimental: The depigmentation effect potential of the Uchuva extract has been researched in a model of normal human epidermal melanocytes (NHEM). The effect of the Uchuva extract on the synthesis of melanin has been evaluated after ten incubation days under conditions stimulated by L-tyrosine. In this test, the reference inhibitory molecule is lipoic acid. Its action mechanism calls for an inhibition of the expression of the MITF transcription factor (microphthalmia-associated transcription factor). This transcription factor is the major regulator of the expression of tyrosinase and its inhibition results in the reduction of the expression of tyrosinase, enzyme involved in the melanin synthesis. The melanocytes have been sown in 24 wells plate and cultivated in the culture medium for 24 hours. […] After incubation, the melanin has been extracted by lysis of the cells with a solution of NaOH 0.5 N. The optical density (OD) of the samples has been measured at 405 nm, then the quantity of melanin has been determined in comparison with a range of exogenous melanin (melanin curve including standards from 0.39 to 100 μg/ml). […] After dissociation of the cells and solubilisation of the formazan by addition of DMSO, the optical density (OD), which represents the number of living cells and their metabolic activity, has been measured with a 540 nm microplate reader (VERSAmax, Molecular Devices).

[2] = system: coding genes for differentiation proteins of the keratinocyte in normal human epidermal keratinocytes (NHEK); assay: Transcriptomic analysis (Affymetrix U219 chip) of treated keratinocytes; assay type: cell-based; conditions: 0.8 μg/ml; for expression of coding genes for differentiation proteins of the keratinocyte: KRT1, IVL, DSG1, DSC1, SPRR2A, SPRR2E, SPRR1A, SPRR2D, CALML5, SBSN and KRTDAP: 4 or 24 hours; for effect on the differentiation of the keratinocytes: deduced from gene expression
Experimental: (§1) The effects of fractions I, II and […] have been researched on by transcriptomic analysis on models of normal human epidermal keratinocytes and human dermal fibroblasts. This global transcript expression analysis has been carried out after 4 to 24 hours of incubation by using the Affymetrix GeneAtlas™ platform and the U219 “full human transcriptome” chip containing 36,000 transcripts and variants.
(§2) • Cellular type: Normal human epidermal keratinocytes (NHEK) • Culture conditions: 37° C., 5% CO2 • Culture medium: Keratinocyte-SFM supplemented with Epidermal Growth Factor (EGF) 0.25 ng/ml Pituitary Extract (PE) 25 μg/ml Gentamycin 25 μg/ml • Test medium: Keratinocyte-SFM supplemented with Gentamycin 25 μg/ml Normal Human Dermal Fibroblasts (NHDF) • Cellular type: Normal human dermal fibroblasts (NHDF), • Culture conditions: 37° C., 5% CO2 • Culture medium: DMEM supplemented with • L-glutamine 2 mM • Penicillin 50 U/ml—Streptomycin 50 μg/ml • Calf foetal serum (CFS) 10% • Test medium: DMEM supplemented with • L-glutamine 2 mM • Penicillin 50 U/ml—Streptomycin 50 μg/ml • CFS 1% 2. Tested Compounds
The cells have been introduced and cultivated in the culture medium for 24 hours and then incubated in their test medium for another 24 hours. Then, the medium has been replaced by the test medium containing or not containing (control) the test compounds and the cells have been incubated for 4 or 24 hours. All the conditions have been completed in n=3.
At the end of the incubation, the culture supernatants have been removed and the cell layers have been rinsed with a PBS solution. The plates have been immediately dry frozen at −80° C.
The total RNA of each sample have been extracted using TriPure Isolation Reagent® as per the protocol recommended by the supplier. The quantity and quality of the RNA have been evaluated by capillary electrophoresis (Bioanalyzer 2100, Agilent).
The amplification of the RNA and the synthesis of the biotinylated RNA analogues (RNAa) have been carried out using the “GeneChip 3'IVT Express” kit (Affymetrix®). The single-strand complementary DNA (cDNA) have been synthesised by reverse transcription of the total RNA in the presence of oligo(dT). By action of a DNA polymerase, a double-stranded cDNA (ds DNA) has been synthesised. Biotinylated RNA have then been synthesised from the cDNA and in the presence of biotinylated ribonucleotide analogues. After a purification stage on magnetic beads, which enables to remove salts, enzymes and free nucleotides, the biotinylated RNA have been hydrolysed into fragments from 35 to 200 nucleotides with a peak at 100-120 nucleotides (fragmented targets). […]

[3] = system: coding gene for fibrillin 1 (FBN1) in normal human dermal fibroblasts (NHDF); assay: Transcriptomic analysis (Affymetrix U219 chip) of treated fibroblasts; assay type: cell-based; conditions: 0.8 μg/ml
Experimental: as §1
as §2, with “Compounds […]” for “Compounds”
The total RNA of each sample have been extracted using TriPure Isolation Reagent® as per the protocol recommended by the supplier. The quantity and quality of the RNA have been evaluated by capillary electrophoresis (Bioanalyzer 2100, Agilent). […]

Collagen IV = assay: Expression of Collagen IV in fibroblasts by immunocytology, fluorescence scoring; assay type: cell-based, human; conditions: positive control element, 48 hours
Experimental: The two concentrations of 4.10-5% and 8.10-5% of the Uchuva extract have been tested.
The cells are introduced on D0, in Millicell 8 wells slides, at a rate of 4.103 cells per ml in 400 μl of complete medium. They are treated on D1 for 48 hours with culture in a complete medium. The concentrations of the active to be tested are expressed in % of the extract. The stock solution of the extract has been prepared in DMSO with 20% concentration (w/v). The first dilution has been made to 1/1000th. The following dilutions have been made while maintaining the final DMSO concentration at 0.1%. After 48 hours, the cells are fixed by an alcohol/acid mixture. Then, the cells are marked using an anti-collagen IV antibody (Rockland) diluted in PBS+BSA/tween to 1/50 for 1 hour. The slides are then rinsed twice by PBS. The revelation of the specific marking is done using an FITC coupled secondary antibody (Santa-Cruz) diluted in PBS+BSA/tween to 1/100 for 1 hour. The slides are then rinsed twice by PBS and put between the slide and the cover glass using the RotiMount Fluocare+DAPI (Roth) mounting fluid.
Photos in green and blue are taken using a DP72 camera (Olympus, Japan) connected to a BX-60 epifluorescence microscope (Olympus, Japan).
The photos have been observed by two readers and a scoring of the intensity of fluorescence has done on a linear scale from 0 (no marking) to 4 (very high marking). […]

Row | Structure (SMILES) | expression of coding genes for differentiation proteins of the keratinocyte: KRT1, IVL, DSG1, DSC1, SPRR2A, SPRR2E, SPRR1A, SPRR2D, CALML5, SBSN and KRTDAP [2] | effect on the differentiation of the keratinocytes [2] | other results
1 | O=C(O)CCCC[C@@H]1CCSS1 (racemic) [lipoic acid] |  |  | inhibition of the synthesis of melanin [1]: 108%
2 | CCCCCCCCCC(=O)O[C@H]1[C@@H](O[C@]2(CO)O[C@H](CO)[C@@H](O)[C@@H]2OC(=O)C(C)C)O[C@H](CO)[C@@H](OC(=O)C(C)C)[C@@H]1OC(=O)C(C)C [Fraction I, 3-O-(2-methyl-1-oxopropyl)-β-D-fructofuranosyl (1→2)-3,4-bis(2-methylpropanoate)-2-decanoate-α-D-glucopyranoside] | expression inhibitions | anti differentiating effect | 
3 | CCCCCCCCCC(=O)O[C@H]1[C@@H](O[C@]2(CO)O[C@H](CO)[C@@H](O)[C@@H]2OC(=O)CC(C)C)O[C@H](CO)[C@@H](OC(=O)C(C)C)[C@@H]1OC(=O)C(C)C [Fraction II, 3-O-(3-methyl-1-oxobutyl)-β-D-fructofuranosyl (1→2)-3,4-bis(2-methylpropanoate)-2-decanoate-α-D-glucopyranoside] | expression inhibitions | anti differentiating effect | expression of the coding gene for fibrillin 1 (FBN1), fold change ([3]; 4 hours): 3.27 X; expression of the coding gene for fibrillin 1 (FBN1), fold change ([3]; 24 hours): 8.24 X
4 | C[C@H](O)[C@H](O)[C@@H](O)[C@@H](O)C=O [rhamnose] |  |  | increase in expression of Collagen IV, amplitude compared with the Uchuva extract (Collagen IV): comparable
